Patent EP4656630A1, “NOVEL COMPOUND AS LYSYL-TRNA SYNTHETASE 1 INHIBITOR, AND USE THEREOF” (Zymedi Co., Ltd., priority 2023, dated 2024)

Assays:
[1] = test system: Raw 264.7 cells; test: LN (Laminin 421)-induced immune cell migration, Transwell; format: cell-based; settings: Mus musculus, RAW264.7; for inhibition at 3 µM: 3 µM compound, LN (Laminin 421 1 µg/ml), 24 hours, % inhibition compared to control group, read-out: Migration inhibitor % (3uM); for EC50: LN-induced cell migration, read-out: EC50 for cell migration inhibition induced by LN
Procedure, shortened: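 Raw 264.7 cells (1 x 10^5/well) seeded in upper chamber of gelatin-coated 5 µm Transwell with compound at 3 µM. Serum-free DMEM with Laminin 421 (1 µg/ml) in lower chamber. After 24 h, migrated cells fixed, hematoxylin-stained and counted by microscopy; expressed as % inhibition versus control.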

[2] = target: T1, KARS1 and 37LR (Homo sapiens, UniProt Q15046); test: Cell-free ELISA of KARS1 and 37LR (laminin receptor) binding; settings: 10 µM compound, 1 hour, plate coated with KARS1 (1-207aa), LRF
T1 construct: KARS1 (1-207aa)
Experimental: Next, based on the mechanism of action, a cell-free ELISA analysis was conducted to select compounds with high inhibitory activity on the binding of KARS1 and LR (laminin receptor).

[3] = test system: Raw264.7 cells; test: KARS1-induced trans-migration assay; format: cell-based, mouse; settings: Mus musculus, RAW264.7; for inhibition at 1 µM: 1 µM compound, read-out: KARS1-induced Raw264.7 cell migration (% inhibition, 1uM); for EC50: KARS1-induced cell migration, 0.1~4 µM
Procedure, shortened: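 Mouse Raw264.7 macrophage trans-migration induced by externally added KARS1 protein in place of laminin. Candidates with high inhibition at 1 µM were then tested at 0.1~4 µM.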

[4] = Microsomal metabolic stability, rat; format: in vitro ADME
Experimental: (§1) Metabolic stability (MS) evaluation was conducted for the selected compounds by measuring in vitro stability in two species, rat and human, according to the microsomal stability measurement method. As a result, it was identified that MS varied depending on the transformation of parts A, B, and C.

[5] = Microsomal metabolic stability, human; format: in vitro ADME
Experimental: as §1

[6] = S9 metabolic stability, mouse; format: in vitro ADME; settings: for Metabolic stability (% remaining at each time) Mouse (min) 30: 30 min; for Metabolic stability (% remaining at each time) Mouse (min) 45: 45 min; for Metabolic stability (% remaining at each time) Mouse (min) 60: 60 min
Experimental: (§2) Among these, secondary MS measurements were conducted for Compound 25 (C0047), Compound 43 (C0216), and C0001 using the S9 method. This test measured the remaining % at 30, 45, and 60 minutes for four species: mouse, rat, dog, and human.

[7] = S9 metabolic stability, rat; format: in vitro ADME; settings: for Metabolic stability (% remaining at each time) Rat (min) 30: 30 min; for Metabolic stability (% remaining at each time) Rat (min) 45: 45 min; for Metabolic stability (% remaining at each time) Rat (min) 60: 60 min
Experimental: as §2

[8] = S9 metabolic stability, dog; format: in vitro ADME; settings: for Metabolic stability (% remaining at each time) Dog (min) 30: 30 min; for Metabolic stability (% remaining at each time) Dog (min) 45: 45 min; for Metabolic stability (% remaining at each time) Dog (min) 60: 60 min
Experimental: as §2

[9] = S9 metabolic stability, human; format: in vitro ADME; settings: for Metabolic stability (% remaining at each time) Human (min) 30: 30 min; for Metabolic stability (% remaining at each time) Human (min) 45: 45 min; for Metabolic stability (% remaining at each time) Human (min) 60: 60 min
Experimental: as §2

[10] = Rat pharmacokinetics (po and iv) and bioavailability; format: in vivo; settings: for Cmax / Tmax / half-life / AUC: in vivo
Experimental: For this purpose, formulations suitable for peroral administration (po) and intravenous injection (iv) for each compound were first selected to ensure stable PK progression.
The formulation was selected under the condition of maintaining a clear solution for more than 1 hour at 10 and 30 mpk doses based on po, and the iv formulation was modified when iv use was not possible based on po (Table 8).
To confirm the oral administration potential of the selected compounds, 10 mpk rat po PK was conducted. The PK profile and key indicators after administering 10 mpk to five compounds, C0001, 25, 41, 42, and 43, are shown in Figure 3 and Table 9.
Based on the previous 10 mpk po rat PK results, 30 mpk po rat PK was conducted for four compounds, C0001, 25, 41, and 43, to confirm changes in the blood PK profile of the substances with increasing doses.
For these compounds, 2 mpk iv rat PK was conducted to calculate bioavailability (BA) (Table 11).

[11] = Organ distribution; format: in vivo; design: Organ distribution Plasma (ng/ml): concentration or dose not given beside the values
[12] = po, 10 mg/kg, 10 mpk (Table 11)
[13] = po, 30 mg/kg, 30 mpk (Table 11)

T1 sequence (Q15046 1-207): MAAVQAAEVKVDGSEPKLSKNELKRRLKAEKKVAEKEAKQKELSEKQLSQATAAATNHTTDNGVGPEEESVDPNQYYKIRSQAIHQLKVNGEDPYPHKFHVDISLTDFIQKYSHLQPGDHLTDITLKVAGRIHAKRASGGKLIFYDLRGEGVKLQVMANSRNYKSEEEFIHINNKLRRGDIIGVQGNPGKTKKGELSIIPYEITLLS

## COc1ccc(CCN(Cc2ccc(N3CC[C@H](C(=O)O)C3)cc2)c2nc3c(F)c(F)cc(F)c3s2)cc1 [Compound 43, (S)-1-(4-(((4-methoxyphenethyl)(4,5,7-trifluorobenzo[d]thiazol-2-yl)amino)methyl)phenyl)pyrrolidine-3-carboxylic acid]
[1]
  inhibition at 3 µM: 31.1%
  EC50: 5090 nM
[2]
  inhibition at 10 µM: 67.1%
[3]
  inhibition at 1 µM: 98.4%
  EC50: 640 nM
[4]
  Metabolic stability (% remaining at 30 min) Rat: 80%
[5]
  Metabolic stability (% remaining at 30 min) Human: 85%
[6]
  Metabolic stability (% remaining at each time) Mouse (min) 30: 79.8%
  Metabolic stability (% remaining at each time) Mouse (min) 45: 77.7%
  Metabolic stability (% remaining at each time) Mouse (min) 60: 73.2%
[7]
  Metabolic stability (% remaining at each time) Rat (min) 30: 99.2%
  Metabolic stability (% remaining at each time) Rat (min) 45: 81.6%
  Metabolic stability (% remaining at each time) Rat (min) 60: 88.0%
[8]
  Metabolic stability (% remaining at each time) Dog (min) 30: 110.9%
  Metabolic stability (% remaining at each time) Dog (min) 45: 117.3%
  Metabolic stability (% remaining at each time) Dog (min) 60: 100.6%
[9]
  Metabolic stability (% remaining at each time) Human (min) 30: 87.3%
  Metabolic stability (% remaining at each time) Human (min) 45: 80.7%
  Metabolic stability (% remaining at each time) Human (min) 60: 92.4%
[10]; 10 mg/kg, po, 10 mpk
  Cmax: 3320 ng/mL
  Tmax: 1.33 h
  half-life: 0.95 h
[10]; 30 mg/kg, po, 30 mpk
  Cmax: 12800 ng/mL
  Tmax: 1.67 h
  half-life: 1 h
[10]; iv, 2 mg/kg, 2 mpk
  AUC: 2690 ng·h/mL
[10]; po, 10 mg/kg, 10 mpk
  AUC: > 5000 ng·h/mL
[10]; [12]
  AUC: 9710 ng·h/mL
[10]; po, 30 mg/kg, 30 mpk
  AUC: 55300 ng·h/mL
[10]; [13]
  AUC: 55300 ng·h/mL
[10]; po, 10 mpk against iv 2 mpk
  BA (%): 72.2%
[10]; po, 10 mpk, listed as 43 (C0216), 10 mg/kg
  AUC (ng*h/ml): 9,711 ng*h/ml
[10]; po, 30 mpk against iv 2 mpk
  BA (%): 137.0%
[10]; po, 30 mpk compared with 10 mpk
  AUC value increase at 30 mpk: 5.7 times
[11]; 0.5 h
  Organ distribution (ratio per plasma) Brain: 0.09
  Organ distribution (ratio per plasma) Heart: 0.42
  Organ distribution (ratio per plasma) Kidney: 0.61
  Organ distribution (ratio per plasma) Liver: 1.70
  Organ distribution (ratio per plasma) Lung: 4.30
  Organ distribution Plasma (ng/ml): 19,420 ng/ml
[11]; 6.0 h
  Organ distribution (ratio per plasma) Brain: 0.92
  Organ distribution (ratio per plasma) Heart: 0.35
  Organ distribution (ratio per plasma) Kidney: 1.89
  Organ distribution (ratio per plasma) Liver: 3.56
  Organ distribution (ratio per plasma) Lung: 0.55
  Organ distribution Plasma (ng/ml): 5,366 ng/ml

## COc1ccc(CCN(Cc2ccc(C#CC(=O)O)cc2)c2nc3cccc(F)c3s2)cc1 [Compound C0001, reference compound]
[1]
  inhibition at 3 µM: 41.9%
  EC50: 7930 nM
[2]
  inhibition at 10 µM: 64.5%
[3]
  inhibition at 1 µM: 68.7%
  EC50: 750 nM
[4]
  Metabolic stability (% remaining at 30 min) Rat: 50%
[5]
  Metabolic stability (% remaining at 30 min) Human: 56%
[6]
  Metabolic stability (% remaining at each time) Mouse (min) 30: 67.1%
  Metabolic stability (% remaining at each time) Mouse (min) 45: 62.3%
  Metabolic stability (% remaining at each time) Mouse (min) 60: 49.6%
[7]
  Metabolic stability (% remaining at each time) Rat (min) 30: 79.6%
  Metabolic stability (% remaining at each time) Rat (min) 45: 76.6%
  Metabolic stability (% remaining at each time) Rat (min) 60: 83.1%
[8]
  Metabolic stability (% remaining at each time) Dog (min) 30: 80.7%
  Metabolic stability (% remaining at each time) Dog (min) 45: 85.6%
  Metabolic stability (% remaining at each time) Dog (min) 60: 75.9%
[9]
  Metabolic stability (% remaining at each time) Human (min) 30: 59.1%
  Metabolic stability (% remaining at each time) Human (min) 45: 50.2%
  Metabolic stability (% remaining at each time) Human (min) 60: 46.2%
[10]; 10 mg/kg, po, 10 mpk
  Cmax: 2020 ng/mL
  Tmax: 0.5 h
  half-life: 1.83 h
[10]; 30 mg/kg, po, 30 mpk
  Cmax: 4720 ng/mL
  Tmax: 2 h
  half-life: 2.67 h
[10]; iv, 2 mg/kg, 2 mpk
  AUC: 3440 ng·h/mL
[10]; po, 10 mg/kg, 10 mpk
  AUC: > 5000 ng·h/mL
[10]; [12]
  AUC: 5830 ng·h/mL
[10]; po, 30 mg/kg, 30 mpk
  AUC: 25600 ng·h/mL
[10]; [13]
  AUC: 25600 ng·h/mL
[10]; po, 10 mpk against iv 2 mpk
  BA (%): 33.9%
[10]; po, 30 mpk against iv 2 mpk
  BA (%): 49.6%
[11]; 0.5 h
  Organ distribution (ratio per plasma) Brain: 0.02
  Organ distribution (ratio per plasma) Heart: 0.06
  Organ distribution (ratio per plasma) Kidney: 0.01 / 0.01
  Organ distribution (ratio per plasma) Liver: 19.1 / 19.1
  Organ distribution (ratio per plasma) Lung: 0.08
  Organ distribution Plasma (ng/ml): 3,145 ng/ml
[11]; 6.0 h
  Organ distribution (ratio per plasma) Brain: 0.01
  Organ distribution (ratio per plasma) Heart: 0.03
  Organ distribution (ratio per plasma) Kidney: 0.01 / 0.01
  Organ distribution (ratio per plasma) Liver: 19.1 / 19.1
  Organ distribution (ratio per plasma) Lung: 0.06
  Organ distribution Plasma (ng/ml): 1,769 ng/ml
